According to ChEMBL document CHEMBL1137771, “Non-nucleoside inhibitors of HCV polymerase NS5B. Part 2: Synthesis and structure-activity relationships of benzothiazine-substituted quinolinediones” (Bioorg Med Chem Lett, 2009):
Values after ≈ are worked out from the molar mass of the structure shown.

Experiments:
[1] = Cytotoxicity against human 2209-23 cells by WST1 assay; type: cell-based
Hepatitis C virus [2] = test: Antiviral activity against HCV genotype 1b isolate con1 infected in human 2209-23 cells assessed as inhibition of [3H]thymidine incorporation into DNA by scintillation proximity assay in presence of 5% fetal bovine serum; type: functional, organism-based, Hepacivirus hominis; settings: isolate Con1, 2209-23
Hepatitis C virus [3] = test: Inhibition of HCV genotype 1b isolate con1 NS5B polymerase assessed as incorporation of radiolabeled nucleotide into RNA product; design: species or system Hepacivirus hominis
Hepatitis C virus [4] = test: Ratio of EC50 for HCV genotype 1b isolate con1 in presence of human serum albumin to EC50 for HCV genotype 1b isolate con1 in presence of fetal bovine serum; type: functional, Hepacivirus hominis
Hepatitis C virus [5] = test: Antiviral activity against HCV genotype 1b isolate con1 infected in human 2209-23 cells assessed as inhibition of [3H]thymidine incorporation into DNA by scintillation proximity assay in presence of 40% human serum albumin; type: functional, organism-based, Hepacivirus hominis; settings: isolate Con1, 2209-23
Hepatitis C virus [6] = test: Antiviral activity against HCV genotype 1b infected in human HuH7 cells by replicon assay; type: functional, organism-based, Hepacivirus hominis; settings: Huh-7
[7] = Oral bioavailability in rat; type: ADME, organism-based; settings: in vivo
[8] = Solubility of the compound; type: physicochemical
[9] = Dissociation constant, pKa of the compound; type: physicochemical
Hepatitis C virus [10] = test: Inhibition of HCV 1b isolate BK NS5B Cdelta21 polymerase expressed in Escherichia coli; design: species or system Hepatitis C virus subtype 1b

SMILES	CC50 [1]	EC50 (Hepatitis C virus [2])	IC50 (Hepatitis C virus [3])	fold change (FC) (Hepatitis C virus [4])	EC50 (Hepatitis C virus [5])	EC50 (Hepatitis C virus [6])	bioavailability [7]	solubility [8]	pKa [9]	IC50 (Hepatitis C virus [10])
O=c1c(C2=CS(=O)(=O)c3ccccc3N2)c(O)c2cc(F)ccc2n1Cc1ccc(F)cc1	> 50000 nM	726 nM								
CS(=O)(=O)Nc1ccc2c(c1)S(=O)(=O)C=C(c1c(O)c3cc(Cl)ccc3n(Cc3ccc(F)cc3)c1=O)N2	> 50000 nM	166 nM	10 nM							
CS(=O)(=O)c1ccc2c(c1)S(=O)(=O)C=C(c1c(O)c3cc(F)ccc3n(Cc3ccc(F)cc3)c1=O)N2	> 50000 nM	11900 nM	3700 nM							
CNC(=O)COc1ccc2c(c1)S(=O)(=O)C=C(c1c(O)c3cc(F)ccc3n(Cc3ccc(F)cc3)c1=O)N2	> 50000 nM	869 nM	25 nM							
COc1cc(Cn2c(=O)c(C3=CS(=O)(=O)c4cc(NS(C)(=O)=O)ccc4N3)c(O)c3cc(F)ccc32)ccc1F	> 50000 nM	100 nM	10 nM	9.2	528 nM					
CS(=O)(=O)Nc1ccc2c(c1)S(=O)(=O)C=C(c1c(O)c3ccc(F)cc3n(Cc3ccc(F)cc3)c1=O)N2	> 50000 nM	74 nM	10 nM	12.1	898 nM					
Nc1ccc2c(c1)S(=O)(=O)C=C(c1c(O)c3cc(F)ccc3n(Cc3ccc(F)cc3)c1=O)N2	> 50000 nM	827 nM	734 nM							
CS(=O)(=O)Nc1ccc2c(c1)S(=O)(=O)C=C(c1c(O)c3cccc(F)c3n(Cc3ccc(F)cc3)c1=O)N2	> 50000 nM	103 nM	8 nM	26.9	2780 nM					
CC(=O)Nc1ccc2c(c1)S(=O)(=O)C=C(c1c(O)c3cc(F)ccc3n(Cc3ccc(F)cc3)c1=O)N2	> 50000 nM	10900 nM	869 nM							
O=c1c(C2=CS(=O)(=O)c3ccccc3N2)c(O)c2cc(F)ccc2n1CCC1CC1						1200 nM	79%	8 µg/mL (≈ 18.8 µM)		
O=c1c(C2=CS(=O)(=O)c3cc(O)ccc3N2)c(O)c2cc(F)ccc2n1Cc1ccc(F)cc1	> 50000 nM	1740 nM	69 nM							
CS(=O)(=O)Nc1ccc2c(c1)S(=O)(=O)C=C(c1c(O)c3cc(F)ccc3n(CC3CCCCC3)c1=O)N2	> 50000 nM	100 nM	18 nM							
CS(=O)(=O)Nc1ccc2c(c1)S(=O)(=O)C=C(c1c(O)c3ccc(Cl)cc3n(Cc3ccc(F)cc3)c1=O)N2	> 50000 nM	2280 nM	384 nM							
CS(=O)(=O)Nc1ccc2c(c1)S(=O)(=O)C=C(c1c(O)c3cc(F)ccc3n(Cc3ccccn3)c1=O)N2	> 50000 nM	1200 nM	103 nM							
N#Cc1ccc2c(c1)S(=O)(=O)C=C(c1c(O)c3cc(F)ccc3n(Cc3ccc(F)cc3)c1=O)N2	> 50000 nM	4640 nM	694 nM							
CS(=O)(=O)Nc1ccc2c(c1)S(=O)(=O)C=C(c1c(O)c3c(Cl)cccc3n(Cc3ccc(F)cc3)c1=O)N2	> 50000 nM	48 nM	12 nM	12.3	593 nM					
O=c1c(C2=CS(=O)(=O)c3cc(F)ccc3N2)c(O)c2cc(F)ccc2n1Cc1ccc(F)cc1	> 50000 nM	1280 nM	148 nM							

SMILES	CC50 [1]	EC50 (Hepatitis C virus [2])	IC50 (Hepatitis C virus [3])	fold change (FC) (Hepatitis C virus [4])	EC50 (Hepatitis C virus [5])	EC50 (Hepatitis C virus [6])	bioavailability [7]	solubility [8]	pKa [9]	IC50 (Hepatitis C virus [10])
CN(c1ccc2c(c1)S(=O)(=O)C=C(c1c(O)c3cc(F)ccc3n(Cc3ccc(F)cc3)c1=O)N2)S(C)(=O)=O	> 50000 nM	1470 nM	106 nM							
CCCC(C)n1c(=O)c(C2=CS(=O)(=O)c3cc(NS(C)(=O)=O)ccc3N2)c(O)c2cc(F)ccc21 (stereo not given)	> 50000 nM	9 nM	41 nM							
CS(=O)(=O)Nc1ccc2c(c1)S(=O)(=O)C=C(c1c(O)c3cc(F)ccc3n(Cc3cccnc3)c1=O)N2	> 50000 nM	589 nM	22 nM							
NS(=O)(=O)Nc1ccc2c(c1)S(=O)(=O)C=C(c1c(O)c3cc(F)ccc3n(Cc3ccc(F)cc3)c1=O)N2	> 50000 nM	15 nM	7 nM							
CC(C)(C)CCn1c(=O)c(C2=CS(=O)(=O)c3cc(NS(C)(=O)=O)ccc3N2)c(O)c2cc(F)ccc21	> 50000 nM		12 nM		241 nM					
COC(C)(C)CCn1c(=O)c(C2=CS(=O)(=O)c3cc(NS(C)(=O)=O)ccc3N2)c(O)c2cc(F)ccc21	> 50000 nM	47 nM	10 nM	9.2	1200 nM					
CS(=O)(=O)Nc1ccc2c(c1)S(=O)(=O)C=C(c1c(O)c3cc(F)ccc3n(Cc3ccc(F)c(Cl)c3)c1=O)N2	> 50000 nM	18 nM	16 nM							
CS(=O)(=O)Nc1ccc2c(c1)S(=O)(=O)C=C(c1c(O)c3cc(F)ccc3n(Cc3ccc(F)cc3)c1=O)N2	> 50000 nM	14 nM		13					3.8	
CS(=O)(=O)Nc1ccc2c(c1)S(=O)(=O)C=C(c1c(O)c3cc(F)ccc3n(Cc3ccc(F)c(F)c3)c1=O)N2	> 50000 nM	15 nM	14 nM							
CS(=O)(=O)Nc1ccc2c(c1)S(=O)(=O)C=C(c1c(O)c3cc(F)ccc3n(Cc3ccncc3)c1=O)N2	> 50000 nM	64 nM	11 nM	9.2	688 nM					
COc1ccc2c(c1)c(O)c(C1=CS(=O)(=O)c3cc(NS(C)(=O)=O)ccc3N1)c(=O)n2Cc1ccc(F)cc1	> 50000 nM	143 nM	5 nM	14.3	2050 nM					
CS(=O)(=O)Nc1ccc2c(c1)S(=O)(=O)C=C(c1c(O)c3ccccc3n(Cc3ccc(F)cc3)c1=O)N2	> 50000 nM	42 nM	2 nM	13	542 nM					
CS(=O)(=O)NCc1ccc2c(c1)S(=O)(=O)C=C(c1c(O)c3cc(F)ccc3n(Cc3ccc(F)cc3)c1=O)N2	> 50000 nM	6930 nM	68 nM							
CS(=O)(=O)Nc1ccc2c(c1)S(=O)(=O)C=C(c1c(O)c3cc(F)ccc3n(Cc3ccccc3)c1=O)N2	> 50000 nM	44 nM	7 nM	9.2	406 nM					
O=c1c(C2=Nc3ccccc3S(=O)(=O)N2)c(O)c2cc(F)ccc2n1CCC1CC1							10%	< 1 µg/mL		30 nM
Cc1ccc2c(c1)c(O)c(C1=CS(=O)(=O)c3cc(NS(C)(=O)=O)ccc3N1)c(=O)n2Cc1ccc(F)cc1	> 50000 nM	25 nM	17 nM							
NC(=O)COc1ccc2c(c1)S(=O)(=O)C=C(c1c(O)c3cc(F)ccc3n(Cc3ccc(F)cc3)c1=O)N2	> 50000 nM	1190 nM	10 nM							
